ChEMBL document CHEMBL3885861, “Open TG-GATES”

Organism: Rattus norvegicus
Assay: Open TG-GATES - Regimen: Single
Assay type: toxicity, organism-based, Sprague-Dawley
Parameters: regimen Single, gender Male, age 6 weeks
Conditions: in vivo, po, 400 mg/kg, route gavage, dose level High; for KIDNEY_L / KIDNEY_R / KIDNEY_TOTAL: tissue Kidney; for LIVER: tissue Liver; for ALT / AST / BUN / CRE / Ca / Cl / DBIL / GLC / IP / LDH / Na / PL / RALB / TBIL / TC / TG / TP / gamma-GTP / ALP: tissue Plasma

Structure (SMILES): CC(C)N(CCC(C(N)=O)(c1ccccc1)c1ccccn1)C(C)C (centres undefined) [DISOPYRAMIDE]
- TERMINAL_BW (3 h): 210.5 g
- APTT (3 h, tissue Blood): 22.6 s
- Bas (3 h, tissue Blood): 0%
- Eos (3 h, tissue Blood): 1%
- Fbg (3 h, tissue Blood): 327.6 mg/dL
- Ht (3 h, tissue Blood): 41.8%
- Lym (3 h, tissue Blood): 74.6%
- MCHC (3 h, tissue Blood): 32.1%
- MCV (3 h, tissue Blood): 62.7 fL
- Mono (3 h, tissue Blood): 2.2%
- Neu (3 h, tissue Blood): 22%
- PT (3 h, tissue Blood): 15.5 s
- Plat (3 h, tissue Blood): 127.1 x10_4/uL
- RBC (3 h, tissue Blood): 667.8 x10_4/ul
- Ret (3 h, tissue Blood): 8%
- WBC (3 h, tissue Blood): 55.8 x10_2/uL
- KIDNEY_L (3 h): 1 g
- KIDNEY_R (3 h): 1 g
- KIDNEY_TOTAL (3 h): 1.9 g
- LIVER (3 h): 9.8 g
- ALT (3 h): 47.4 IU/L
- AST (3 h): 85.2 IU/L
- BUN (3 h): 12.2 mg/dL
- CRE (3 h): 0.1 mg/dL
- Ca (3 h): 10.2 mg/dL
- Cl (3 h): 106.2 meq/L
- DBIL (3 h): 0.002 mg/dL
- GLC (3 h): 129.8 mg/dL
- IP (3 h): 8.9 mg/dL
- LDH (3 h): 264.8 IU/L
- Na (3 h): 142.8 meq/L
- PL (3 h): 126.6 mg/dL
- RALB (3 h): 3 g/dL
- TBIL (3 h): 0 mg/dL
- TC (3 h): 74.2 mg/dL
- TG (3 h): 47.8 mg/dL
- TP (3 h): 5.6 g/dL
- gamma-GTP (3 h): 1 IU/L
- TERMINAL_BW (6 h): 207.1 g
- APTT (6 h, tissue Blood): 22.8 s
- Bas (6 h, tissue Blood): 0%
- Eos (6 h, tissue Blood): 0.4%
- Fbg (6 h, tissue Blood): 326 mg/dL
- Ht (6 h, tissue Blood): 42.8%
- Lym (6 h, tissue Blood): 73.2%
- MCHC (6 h, tissue Blood): 31.8%
- MCV (6 h, tissue Blood): 62.5 fL
- Mono (6 h, tissue Blood): 2.6%
- Neu (6 h, tissue Blood): 23.2%
- PT (6 h, tissue Blood): 15.4 s
- Plat (6 h, tissue Blood): 122.6 x10_4/uL
- RBC (6 h, tissue Blood): 685.8 x10_4/ul
- Ret (6 h, tissue Blood): 7.5%
- WBC (6 h, tissue Blood): 67.9 x10_2/uL
- KIDNEY_L (6 h): 1 g
- KIDNEY_R (6 h): 1 g
- KIDNEY_TOTAL (6 h): 2 g
- LIVER (6 h): 9.2 g
- ALP (6 h): 1240.8 IU/L
- ALT (6 h): 38.8 IU/L
- AST (6 h): 74 IU/L
- BUN (6 h): 12.2 mg/dL
- CRE (6 h): 0.1 mg/dL
- Ca (6 h): 10.4 mg/dL
- Cl (6 h): 105.8 meq/L
- DBIL (6 h): 0.006 mg/dL
- GLC (6 h): 157.2 mg/dL
- IP (6 h): 8.7 mg/dL
- LDH (6 h): 237.8 IU/L
- Na (6 h): 140.6 meq/L
- PL (6 h): 132.2 mg/dL
- RALB (6 h): 3 g/dL
- TBIL (6 h): 0.006 mg/dL
- TC (6 h): 75.4 mg/dL
- TG (6 h): 43.2 mg/dL
- TP (6 h): 5.6 g/dL
- gamma-GTP (6 h): 1.6 IU/L
- TERMINAL_BW (9 h): 208.7 g
- APTT (9 h, tissue Blood): 24 s
- Bas (9 h, tissue Blood): 0%
- Eos (9 h, tissue Blood): 0.4%
- Fbg (9 h, tissue Blood): 326 mg/dL
- Ht (9 h, tissue Blood): 42.6%
- Lym (9 h, tissue Blood): 71.8%
- MCHC (9 h, tissue Blood): 31.9%
- MCV (9 h, tissue Blood): 62.9 fL
- Mono (9 h, tissue Blood): 1.8%
- Neu (9 h, tissue Blood): 25.4%
- PT (9 h, tissue Blood): 15.7 s
- Plat (9 h, tissue Blood): 120.6 x10_4/uL
- RBC (9 h, tissue Blood): 677.6 x10_4/ul
- Ret (9 h, tissue Blood): 7.7%
- WBC (9 h, tissue Blood): 64.5 x10_2/uL
- KIDNEY_L (9 h): 1 g
- KIDNEY_R (9 h): 1 g
- KIDNEY_TOTAL (9 h): 2 g
- LIVER (9 h): 9 g
- ALP (9 h): 1238 IU/L
- ALT (9 h): 41 IU/L
- AST (9 h): 79 IU/L
- BUN (9 h): 14 mg/dL
- CRE (9 h): 0.1 mg/dL
- Ca (9 h): 10.6 mg/dL
- Cl (9 h): 106 meq/L
- DBIL (9 h): 0 mg/dL
- GLC (9 h): 145.6 mg/dL
- IP (9 h): 8.4 mg/dL
- LDH (9 h): 217.4 IU/L
- Na (9 h): 142 meq/L
- PL (9 h): 130.4 mg/dL
- RALB (9 h): 3.1 g/dL
- TBIL (9 h): 0 mg/dL
- TC (9 h): 70.8 mg/dL
- TG (9 h): 63.4 mg/dL
- TP (9 h): 5.8 g/dL
- gamma-GTP (9 h): 1.4 IU/L
- TERMINAL_BW (24 h): 215.7 g
- APTT (24 h, tissue Blood): 23.1 s
- Bas (24 h, tissue Blood): 0%
- Eos (24 h, tissue Blood): 0.8%
- Fbg (24 h, tissue Blood): 289.6 mg/dL
- Hb (24 h, tissue Blood): 13 g/dL
- Ht (24 h, tissue Blood): 40.3%
- Lym (24 h, tissue Blood): 83%
- MCHC (24 h, tissue Blood): 32.2%
- MCV (24 h, tissue Blood): 63.1 fL
- Mono (24 h, tissue Blood): 1.6%
- PT (24 h, tissue Blood): 16.1 s
- Plat (24 h, tissue Blood): 118.5 x10_4/uL
- RBC (24 h, tissue Blood): 639.8 x10_4/ul
- Ret (24 h, tissue Blood): 6.5%
- WBC (24 h, tissue Blood): 82.6 x10_2/uL
- KIDNEY_L (24 h): 1 g
- KIDNEY_R (24 h): 1 g
- KIDNEY_TOTAL (24 h): 1.9 g
- LIVER (24 h): 8.8 g
- ALP (24 h): 1524 IU/L
- ALT (24 h): 48.2 IU/L
- AST (24 h): 78.6 IU/L
- BUN (24 h): 16 mg/dL
- CRE (24 h): 0.2 mg/dL
- Ca (24 h): 10.4 mg/dL
- Cl (24 h): 106 meq/L
- DBIL (24 h): 0 mg/dL
- GLC (24 h): 153.2 mg/dL
- IP (24 h): 8.8 mg/dL
- LDH (24 h): 215.8 IU/L
- PL (24 h): 133.2 mg/dL
- RALB (24 h): 2.8 g/dL
- TBIL (24 h): 0 mg/dL
- TC (24 h): 75 mg/dL
- TG (24 h): 58.2 mg/dL
- TP (24 h): 5.4 g/dL
- gamma-GTP (24 h): 2 IU/L
